Data published in patent US4303657A, “Nitrohydroxyalkyl-substituted quinoxaxiline dioxides and alkanoic acid esters thereof” (International Minerals & Chemical Corp., priority 1979, dated 1981).
≈ marks a conversion by molar mass, not a printed value.

Tests used:
[1] = Growth rate and feed efficiency of animals when included in the feed rations (statement); assay type: in vivo; conditions: in words
From the text: It is an embodiment of this invention to provide a method for promoting the growth of animals and improving their feed efficiency by administering to them a compound of this invention.
The method of administration of a compound of this invention is to incorporate it in the feed rations intended for the animal at a concentration of about 50-150 g/ton of feed, preferably about 100 g/ton. The animals are permitted to feed at liberty throughout the growth period. There are many specialized feed rations for different species of animals. The compounds of this invention can be used with any of the known rations.

[2] = Growth promotion and improved feed efficiency feeding test (rye diet); assay type: in vivo, male two-day-old broiler-type chicks; conditions: for Increase in feed efficiency / Increase in weight: over control group
Experimental: Growth promotion and improved feed efficiency were determined as follows:
Two groups of male two-day-old broiler-type chicks were placed into Petersime starter batteries and given feed and water ad libitum for the duration of each test. Each group was subdivided into six sub-groups with ten birds in each sub-group, thus providing sixty birds per group. One group received the basal feed ration, as given in Table 1 and served as a control. The other group receives the same ration, but in addition there was included P-2229 at a concentration of 100 g/ton. The basal ration was a rye diet which alters the microflora of the gut in the bird which results in a growth depressant effect. When a growth stimulant or promotant is added to the diet, the effect on the birds performance will be more apparent than if a corn base diet was used.
The test period was thirteen days. Individual live body weights and pen feed efficiencies were taken at 2 and 14 days of age.

Staphylococcus aureus = assay: Minimum inhibitory concentration, Staphylococcus aureus; assay type: cell-based
[3] = test system: Streptococcus hemolyticus; assay: Minimum inhibitory concentration, Streptococcus hemolyticus; assay type: cell-based; conditions: Streptococcus pyogenes
Escherichia coli = assay: Minimum inhibitory concentration, Escherichia coli; assay type: cell-based
[4] = test system: Pasteurella pseudotuberculosis; assay: microbe, parasite or virus in culture; assay type: cell-based; conditions: Yersinia pseudotuberculosis
Pseudomonas aeruginosa = assay: Minimum inhibitory concentration, Pseudomonas aeruginosa; assay type: cell-based
Shigella dysenteriae = assay: Minimum inhibitory concentration, Shigella dysenteriae; assay type: cell-based
Mycobacterium ranae = assay: Minimum inhibitory concentration, Mycobacterium ranae; assay type: cell-based
Aspergillus niger = assay: Minimum inhibitory concentration, Aspergillus niger; assay type: cell-based
Candida albicans = assay: Minimum inhibitory concentration, Candida albicans; assay type: cell-based
Pencillium sp. = assay: Minimum inhibitory concentration, Pencillium sp.; assay type: cell-based
Aspergillus fumigatus = assay: Minimum inhibitory concentration, Aspergillus fumigatus; assay type: cell-based
[5] = Table 1, 100 g/ton in feed, 13 days
[6] = Table 2, feed consumed to weight gained, control 1.56
[7] = Table 2, test of Example 1 repeated, control 208.77
[8] = Table 3, feed consumed to weight gained, control 1.82
[9] = when tested in feed rations, in words

Structure (SMILES): CCC(COC(C)=O)(C(OC(C)=O)c1c[n+]([O-])c2ccccc2[n+]1[O-])[N+](=O)[O-] (stereo not drawn) [Example 12, 2-(1-acetoxy-2-acetoxymethyl-2-nitrobutyl)quinoxaline-1,4-dioxide]
- feed efficiency ([1]; present-tense example): increases the feed efficiency
- growth rate ([1]; present-tense example): improves the growth rate

Structure (SMILES): CCCC(C(O)c1c[n+]([O-])c2ccccc2[n+]1[O-])[N+](=O)[O-] (stereo not drawn) [Example 13, 2-(1-hydroxy-2-nitropentyl)quinoxaline-1,4-dioxide]
- feed efficiency ([1]; present-tense example): increases the feed efficiency
- growth rate ([1]; present-tense example): improves the growth rate

Structure (SMILES): CCC(C)(C(O)c1c[n+]([O-])c2ccccc2[n+]1[O-])[N+](=O)[O-] (stereo not drawn) [Example 14, 2-(1-hydroxy-2-methyl-2-nitrobutyl)quinoxaline-1,4-dioxide]
- feed efficiency ([1]; present-tense example): increases the feed efficiency
- growth rate ([1]; present-tense example): improves the growth rate

Structure (SMILES): O=[N+]([O-])C1(C(O)c2c[n+]([O-])c3ccccc3[n+]2[O-])CCCCC1 (stereo not drawn) [Example 15, α-(1-nitrocyclohexyl)-2-quinoxalinemethanol-1,4-dioxide]
- feed efficiency ([1]; present-tense example): increases the feed efficiency
- growth rate ([1]; present-tense example): improves the growth rate

Structure (SMILES): CCCC(C(OC(C)=O)c1c[n+]([O-])c2ccccc2[n+]1[O-])[N+](=O)[O-] (stereo not drawn) [Example 16, 2-(1-acetoxy-2-nitropentyl)quinoxaline-1,4-dioxide]
- feed efficiency ([1]; present-tense example): increases the feed efficiency
- growth rate ([1]; present-tense example): improves the growth rate

Structure (SMILES): CCC(C)(C(OC(C)=O)c1c[n+]([O-])c2ccccc2[n+]1[O-])[N+](=O)[O-] (stereo not drawn) [Example 17, 2-(1-acetoxy-2-methyl-2-nitrobutyl)quinoxaline-1,4-dioxide]
- feed efficiency ([1]; present-tense example): increases the feed efficiency
- growth rate ([1]; present-tense example): improves the growth rate

Structure (SMILES): CC(=O)OC(c1c[n+]([O-])c2ccccc2[n+]1[O-])C1([N+](=O)[O-])CCCCC1 (stereo not drawn) [Example 18]
- feed efficiency ([1]; present-tense example): increases the feed efficiency
- growth rate ([1]; present-tense example): improves the growth rate

Structure (SMILES): COC(=O)C(C(O)c1c[n+]([O-])c2ccccc2[n+]1[O-])[N+](=O)[O-] (stereo not drawn) [Example P-2229, methyl-α-nitro-β-hydroxy-2-quinoxalinepropionate-1,4-dioxide]
- Body weight gain, av ([2]; Table 1, 100 g/ton in feed, 13 days, control 208.73): 218.75 g
- feed efficiency ([2]; Table 1, feed consumed to weight gained, control 1.49): 1.48
- Increase in feed efficiency [2, 5]: 0.7%
- Increase in weight [2, 5]: 4.8%

Structure (SMILES): CC(C(O)c1c[n+]([O-])c2ccccc2[n+]1[O-])[N+](=O)[O-] (stereo not drawn) [Example P-2230, 2-(1-hydroxy-2-nitropropyl)quinoxaline-1,4-dioxide]
- feed efficiency [2, 6]: 1.45
- Increase in feed efficiency ([2]; Table 2): 7.1
- Increase in weight ([2]; Table 2): 6.5%
- Body weight gain, av [2, 7]: 222.37 g

Structure (SMILES): O=[N+]([O-])CC(O)c1c[n+]([O-])c2ccccc2[n+]1[O-] (stereo not drawn) [Example P-2231, 2-(1-hydroxy-2-nitroethyl)-quinoxaline-1,4-dioxide]
- feed efficiency [2, 6]: 1.46
- Increase in feed efficiency ([2]; Table 2): 6.4
- Increase in weight ([2]; Table 2): 6.1%
- Body weight gain, av [2, 7]: 221.54 g

Structure (SMILES): COC(=O)C(C(OC(C)=O)c1c[n+]([O-])c2ccccc2[n+]1[O-])[N+](=O)[O-] (stereo not drawn) [Example P-2236]
- Body weight gain, av ([2]; Table 4, control 97.33): 154.92 g
- feed efficiency ([2]; Table 4, feed consumed to weight gained, control 1.84): 1.56
- Increase in feed efficiency ([2]; Table 4): 15.2
- Increase in weight ([2]; Table 4): 59.17%

Structure (SMILES): CC(=O)OC(c1c[n+]([O-])c2ccccc2[n+]1[O-])C(C)[N+](=O)[O-] (stereo not drawn) [Example P-2242, 2-(1-acetoxy-2-nitropropyl)quinoxaline-1,4-dioxide]
- Body weight gain, av ([2]; Table 5, control 165.7): 210.6 g
- feed efficiency ([2]; Table 5, feed consumed to weight gained, control 1.57): 1.48
- Increase in feed efficiency ([2]; Table 5): 5.7
- Increase in weight ([2]; Table 5): 27.1%

Structure (SMILES): CC(=O)OC(C[N+](=O)[O-])c1c[n+]([O-])c2ccccc2[n+]1[O-] (stereo not drawn) [Example P-2243, 2-(1-acetoxy-2-nitroethyl)quinoxaline-1,4-dioxide]
- Body weight gain, av ([2]; Table 6, control 144.7): 240.5 g
- feed efficiency ([2]; Table 6, feed consumed to weight gained, control 1.69): 1.48
- Increase in feed efficiency ([2]; Table 6): 12.4
- Increase in weight ([2]; Table 6): 66.2%

Structure (SMILES): CCC(C(O)c1c[n+]([O-])c2ccccc2[n+]1[O-])[N+](=O)[O-] (stereo not drawn) [Example P-2246, 2-(1-hydroxy-2-nitrobutyl)quinoxaline-1,4-dioxide]
- Body weight gain, av ([2]; Table 3, control 128.6): 194.7 g
- feed efficiency [2, 8]: 1.54
- Increase in feed efficiency ([2]; Table 3): 15.4
- Increase in weight ([2]; Table 3): 51.4%

Structure (SMILES): CC(C)(C(O)c1c[n+]([O-])c2ccccc2[n+]1[O-])[N+](=O)[O-] (stereo not drawn) [Example P-2265, 2-(1-hydroxy-2-methyl-2-nitropropyl)quinoxaline-1,4-dioxide]
- Body weight gain, av ([2]; Table 3, control 128.6): 188.7 g
- feed efficiency [2, 8]: 1.59
- Increase in feed efficiency ([2]; Table 3): 12.6
- Increase in weight ([2]; Table 3): 46.7%

Structure (SMILES): CCC(C(OC(C)=O)c1c[n+]([O-])c2ccccc2[n+]1[O-])[N+](=O)[O-] (stereo not drawn) [Example P-2277, 2-(1-acetoxy-2-nitrobutyl)quinoxaline-1,4-dioxide]
- feed efficiency [1]: increases the feed efficiency
- growth rate [1]: improves the growth rate

Structure (SMILES): CCC(CO)(C(O)c1c[n+]([O-])c2ccccc2[n+]1[O-])[N+](=O)[O-] (stereo not drawn) [Example P-2280, 2-(1-hydroxy-2-hydroxymethyl-2-nitrobutyl)quinoxaline-1,4-dioxide]
- feed efficiency [2, 9]: improved efficiency
- growth rate [2, 9]: improved growth rate
- MIC (Staphylococcus aureus): 500 to 1000 µg/mL (≈ 1620 to 3230 µM)
- MIC [3]: 500 to 1000 µg/mL (≈ 1620 to 3230 µM)
- MIC (Escherichia coli): 100 to 500 µg/mL (≈ 323 to 1620 µM)
- MIC [4]: 50 to 100 µg/mL (≈ 162 to 323 µM)
- MIC (Pseudomonas aeruginosa): 500 to 1000 µg/mL (≈ 1620 to 3230 µM)
- MIC (Shigella dysenteriae): 500 to 1000 µg/mL (≈ 1620 to 3230 µM)
- MIC (Mycobacterium ranae): 50 to 100 µg/mL (≈ 162 to 323 µM)
- MIC (Aspergillus niger): 100 to 500 µg/mL (≈ 323 to 1620 µM)
- MIC (Candida albicans): 100 to 500 µg/mL (≈ 323 to 1620 µM)
- MIC (Pencillium sp.): 100 to 500 µg/mL (≈ 323 to 1620 µM)
- MIC (Aspergillus fumigatus): 500 to 1000 µg/mL (≈ 1620 to 3230 µM)

Structure (SMILES): CC(=O)OC(c1c[n+]([O-])c2ccccc2[n+]1[O-])C(C)(C)[N+](=O)[O-] (stereo not drawn) [Example P-2284, 2-(1-acetoxy-2-methyl-2-nitropropyl)quinoxaline-1,4-dioxide]
- feed efficiency [1]: increases the feed efficiency
- growth rate [1]: improves the growth rate
